System: MDS patients
Assay: Clinical hematological response of MDS patients treated with Rigosertib
Format: in vivo, human
Details: number of patients of 32 MDS patients
From the text: As used herein, “response” is defined by standard clinical criteria, importantly including amelioration of transfusion-dependent anemia, which is a major hallmark of myelodysplastic syndromes (MDS).
This study sought to identify DNA methylation markers that can predict the therapeutic response to a different, and an even more widely pertinent, class of anti-cancer drugs, namely broad-specificity tyrosine kinase inhibitors (TKI's) or a broad specificity kinase inhibitors. As used herein, “response” is defined by standard clinical criteria, importantly including amelioration of transfusion-dependent anemia, which is a major hallmark of myelodysplastic syndromes (MDS).
Pre-therapy bone marrow mononuclear cells from 32 patients were analyzed using the Illumina 450K methylation array platform.
In summary, seven (7) of 32 MDS patients had complete response or CR (Transfusion independence (TI)+increase in hemoglobin (Hb)>2 g/dL), ten (10) had partial response or PR (TI without Hb increase) and fifteen (15) had no response or NR. […] Bisulfite sequencing (which allows quantification of multiple consecutive CpGs in an amplicon) of several differentially methylated loci confirmed the Illumina 450K data.

COc1cc(OC)c(/C=C/S(=O)(=O)Cc2ccc(OC)c(NCC(=O)[O-])c2)c(OC)c1.[Na+] [Rigosertib]
complete response or CR (Transfusion independence (TI)+increase in hemoglobin (Hb)>2 g/dL): 7
no response or NR: 15
partial response or PR (TI without Hb increase): 10

Reference: patent publication US20160102363A1, “METHODS AND COMPOSITIONS FOR PREDICTING THERAPEUTIC EFFICACY OF KINASE INHIBITORS IN PATIENTS WITH MYELODYSPLASTIC SYNDROME OR RELATED DISORDERS” (ONCONOVA THERAPEUTICS, INC., priority 2013, published 2016)
